From ChEMBL document CHEMBL1136702, “Design and synthesis of S-(-)-2-[[4-(napht-1-yl)piperazin-1-yl]methyl]-1,4-dioxoperhydropyrrolo[1,2-a]pyrazine (CSP-2503) using computational simulation. A 5-HT1A receptor agonist” (Bioorg Med Chem Lett, 2003)

Assays:
[1] = molecular target: T1, Adrenergic receptor alpha-1 (Rattus norvegicus, UniProt P15823+P23944+P43140); assay: Binding affinity towards Alpha-1 adrenergic receptor in rat cerebral cortex membranes using [3H]prazosin as radioligand; assay type: cell membranes, Membrane
T1 sequence (P15823 whole entry): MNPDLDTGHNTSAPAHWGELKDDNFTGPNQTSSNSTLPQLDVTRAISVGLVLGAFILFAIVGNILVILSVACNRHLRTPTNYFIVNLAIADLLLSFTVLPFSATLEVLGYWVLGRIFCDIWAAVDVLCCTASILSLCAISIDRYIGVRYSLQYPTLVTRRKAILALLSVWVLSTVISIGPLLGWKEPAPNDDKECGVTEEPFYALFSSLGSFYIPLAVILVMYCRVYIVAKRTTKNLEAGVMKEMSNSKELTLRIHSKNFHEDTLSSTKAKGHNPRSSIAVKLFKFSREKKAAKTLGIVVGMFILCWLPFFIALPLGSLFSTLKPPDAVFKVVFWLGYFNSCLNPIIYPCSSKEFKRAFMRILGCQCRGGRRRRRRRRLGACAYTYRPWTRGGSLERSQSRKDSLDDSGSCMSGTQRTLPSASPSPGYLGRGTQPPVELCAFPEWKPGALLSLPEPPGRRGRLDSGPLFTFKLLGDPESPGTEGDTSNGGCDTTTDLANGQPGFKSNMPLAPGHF
T1 sequence (P23944 whole entry): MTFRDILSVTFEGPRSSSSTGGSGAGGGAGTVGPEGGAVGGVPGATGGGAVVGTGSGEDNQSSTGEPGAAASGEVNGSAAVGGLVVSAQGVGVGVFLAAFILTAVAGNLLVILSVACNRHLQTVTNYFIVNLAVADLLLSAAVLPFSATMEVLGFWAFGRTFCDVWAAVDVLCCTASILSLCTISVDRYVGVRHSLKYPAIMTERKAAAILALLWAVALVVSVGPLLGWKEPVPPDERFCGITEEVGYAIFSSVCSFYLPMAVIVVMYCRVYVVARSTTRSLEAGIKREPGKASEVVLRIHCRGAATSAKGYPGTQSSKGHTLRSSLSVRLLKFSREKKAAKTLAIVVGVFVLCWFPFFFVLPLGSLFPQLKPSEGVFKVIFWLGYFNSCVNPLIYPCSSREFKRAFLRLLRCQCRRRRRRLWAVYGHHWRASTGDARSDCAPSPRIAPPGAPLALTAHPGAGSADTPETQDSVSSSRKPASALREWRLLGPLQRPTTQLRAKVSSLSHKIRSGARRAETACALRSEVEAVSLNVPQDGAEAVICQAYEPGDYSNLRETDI
T1 sequence (P43140 whole entry): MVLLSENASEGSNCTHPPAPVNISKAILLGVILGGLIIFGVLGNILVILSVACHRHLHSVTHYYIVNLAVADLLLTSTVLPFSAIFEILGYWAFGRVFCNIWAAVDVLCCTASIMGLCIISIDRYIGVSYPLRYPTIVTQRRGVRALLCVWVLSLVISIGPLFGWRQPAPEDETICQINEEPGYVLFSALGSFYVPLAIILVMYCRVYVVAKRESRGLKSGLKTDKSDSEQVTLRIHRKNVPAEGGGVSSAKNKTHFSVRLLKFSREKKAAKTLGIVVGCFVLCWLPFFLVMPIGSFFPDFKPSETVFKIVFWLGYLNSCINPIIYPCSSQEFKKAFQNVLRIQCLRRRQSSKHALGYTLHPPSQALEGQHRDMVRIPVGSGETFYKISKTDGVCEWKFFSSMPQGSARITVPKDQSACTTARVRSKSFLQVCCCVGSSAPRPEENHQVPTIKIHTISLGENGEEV

[2] = molecular target: T2, 5-hydroxytryptamine receptor 1A (Rattus norvegicus, UniProt P19327); assay: Binding affinity towards 5-HT 1A receptor in rat cerebral cortex membranes using [3H]8-OH-DPAT as radioligand; assay type: cell membranes, Membrane
T2 sequence (P19327 whole entry): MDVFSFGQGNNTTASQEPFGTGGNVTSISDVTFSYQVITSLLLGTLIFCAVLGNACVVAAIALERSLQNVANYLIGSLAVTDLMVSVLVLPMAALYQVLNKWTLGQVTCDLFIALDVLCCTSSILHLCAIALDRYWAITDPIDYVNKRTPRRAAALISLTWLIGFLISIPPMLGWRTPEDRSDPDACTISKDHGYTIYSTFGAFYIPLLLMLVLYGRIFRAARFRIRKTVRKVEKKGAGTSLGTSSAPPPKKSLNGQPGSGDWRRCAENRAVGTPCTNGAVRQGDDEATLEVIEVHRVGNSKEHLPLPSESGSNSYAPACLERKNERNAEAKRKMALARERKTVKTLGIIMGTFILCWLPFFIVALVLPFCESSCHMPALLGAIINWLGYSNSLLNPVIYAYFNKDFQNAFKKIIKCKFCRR

[3] = molecular target: 5-hydroxytryptamine receptor 4 (Rattus norvegicus, UniProt Q62758); assay: Binding affinity towards 5-HT 4 receptor in rat striatum membranes using [3H]GR-113808 as radioligand; assay type: cell membranes, Membrane
D(2) dopamine receptor = D(2) dopamine receptor (Rattus norvegicus, UniProt P61169); assay: Binding affinity towards dopamine D2 receptor in rat striatum membranes using [3H]raclopride as radioligand; assay type: cell membranes, Membrane
[4] = molecular target: 5-hydroxytryptamine receptor 2A (Rattus norvegicus, UniProt P14842); assay: Binding affinity towards 5-HT 2A receptor in rat cerebral frontal cortex membranes using [3H]ketanserin as radioligand; assay type: tissue-based, Membrane
[5] = molecular target: 5-hydroxytryptamine receptor 7 (Rattus norvegicus, UniProt P32305); assay: Binding affinity towards 5-HT 7 receptor in rat hypothalamus membranes using [3H]5-CT as radioligand; assay type: cell membranes, Membrane
[6] = molecular target: Sodium-dependent serotonin transporter (Rattus norvegicus, UniProt P31652); assay: Binding affinity towards 5-HT transporter in rat cerebral cortex membranes using [3H]paroxetine as radioligand; assay type: cell membranes, Membrane
[7] = molecular target: GABA-A receptor; anion channel; assay: Displacement of [3H]flunitrazepam from GABA-A benzodiazepine receptor of rat cerebral cortex membranes; assay type: cell membranes, Membrane

5-hydroxytryptamine receptor 7, sequence (P32305 whole entry): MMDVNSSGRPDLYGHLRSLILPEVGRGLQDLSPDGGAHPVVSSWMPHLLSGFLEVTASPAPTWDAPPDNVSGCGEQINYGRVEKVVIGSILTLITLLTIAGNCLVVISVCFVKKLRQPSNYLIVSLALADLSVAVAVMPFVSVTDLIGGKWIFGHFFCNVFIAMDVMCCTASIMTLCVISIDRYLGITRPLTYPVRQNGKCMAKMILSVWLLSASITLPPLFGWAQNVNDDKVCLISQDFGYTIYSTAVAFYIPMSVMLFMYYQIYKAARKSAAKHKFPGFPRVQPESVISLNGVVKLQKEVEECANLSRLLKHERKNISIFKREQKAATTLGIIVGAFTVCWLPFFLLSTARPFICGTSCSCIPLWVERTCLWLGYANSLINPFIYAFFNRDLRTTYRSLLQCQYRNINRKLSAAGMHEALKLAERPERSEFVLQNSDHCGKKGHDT
5-hydroxytryptamine receptor 2A, sequence (P14842 whole entry): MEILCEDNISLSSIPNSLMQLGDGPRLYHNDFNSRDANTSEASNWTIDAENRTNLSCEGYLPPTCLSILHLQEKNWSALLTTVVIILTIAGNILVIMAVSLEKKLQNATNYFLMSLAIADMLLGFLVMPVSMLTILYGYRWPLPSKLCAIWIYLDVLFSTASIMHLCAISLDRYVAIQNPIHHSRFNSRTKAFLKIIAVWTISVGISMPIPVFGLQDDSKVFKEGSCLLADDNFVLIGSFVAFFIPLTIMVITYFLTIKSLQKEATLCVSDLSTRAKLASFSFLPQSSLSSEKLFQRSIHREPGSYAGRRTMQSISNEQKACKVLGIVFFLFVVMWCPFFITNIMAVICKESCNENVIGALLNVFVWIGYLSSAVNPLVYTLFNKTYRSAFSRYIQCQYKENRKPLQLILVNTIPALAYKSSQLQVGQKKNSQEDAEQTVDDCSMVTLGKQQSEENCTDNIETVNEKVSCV
Sodium-dependent serotonin transporter, sequence (P31652 whole entry): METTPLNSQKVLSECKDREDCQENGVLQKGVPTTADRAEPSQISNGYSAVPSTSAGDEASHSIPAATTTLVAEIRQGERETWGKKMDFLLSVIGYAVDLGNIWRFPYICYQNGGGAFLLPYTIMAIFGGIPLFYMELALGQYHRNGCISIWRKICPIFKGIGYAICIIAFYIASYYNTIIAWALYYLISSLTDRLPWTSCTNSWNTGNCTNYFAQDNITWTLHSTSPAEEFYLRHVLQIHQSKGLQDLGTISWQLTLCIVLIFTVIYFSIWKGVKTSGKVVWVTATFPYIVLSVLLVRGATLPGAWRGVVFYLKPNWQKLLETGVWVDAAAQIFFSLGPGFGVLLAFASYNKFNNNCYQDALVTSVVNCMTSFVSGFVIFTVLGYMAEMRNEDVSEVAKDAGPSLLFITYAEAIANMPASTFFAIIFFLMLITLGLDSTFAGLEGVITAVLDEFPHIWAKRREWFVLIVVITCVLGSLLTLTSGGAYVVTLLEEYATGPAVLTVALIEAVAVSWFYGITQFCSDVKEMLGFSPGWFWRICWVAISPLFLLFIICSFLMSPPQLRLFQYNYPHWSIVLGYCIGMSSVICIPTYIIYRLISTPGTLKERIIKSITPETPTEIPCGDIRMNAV
D(2) dopamine receptor, sequence (P61169 whole entry): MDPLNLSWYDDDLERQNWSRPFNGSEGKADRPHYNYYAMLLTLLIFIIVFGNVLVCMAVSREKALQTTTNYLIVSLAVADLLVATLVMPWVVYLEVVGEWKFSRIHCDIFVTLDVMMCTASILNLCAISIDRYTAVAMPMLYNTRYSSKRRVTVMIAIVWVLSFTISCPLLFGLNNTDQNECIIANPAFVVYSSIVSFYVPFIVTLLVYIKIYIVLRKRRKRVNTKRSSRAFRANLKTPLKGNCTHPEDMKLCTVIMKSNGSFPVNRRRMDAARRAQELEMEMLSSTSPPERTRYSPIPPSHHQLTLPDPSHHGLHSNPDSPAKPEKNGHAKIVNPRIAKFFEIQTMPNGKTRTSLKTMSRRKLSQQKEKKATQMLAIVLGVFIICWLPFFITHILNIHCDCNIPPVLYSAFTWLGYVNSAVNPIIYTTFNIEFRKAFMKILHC
5-hydroxytryptamine receptor 4, sequence (Q62758 whole entry): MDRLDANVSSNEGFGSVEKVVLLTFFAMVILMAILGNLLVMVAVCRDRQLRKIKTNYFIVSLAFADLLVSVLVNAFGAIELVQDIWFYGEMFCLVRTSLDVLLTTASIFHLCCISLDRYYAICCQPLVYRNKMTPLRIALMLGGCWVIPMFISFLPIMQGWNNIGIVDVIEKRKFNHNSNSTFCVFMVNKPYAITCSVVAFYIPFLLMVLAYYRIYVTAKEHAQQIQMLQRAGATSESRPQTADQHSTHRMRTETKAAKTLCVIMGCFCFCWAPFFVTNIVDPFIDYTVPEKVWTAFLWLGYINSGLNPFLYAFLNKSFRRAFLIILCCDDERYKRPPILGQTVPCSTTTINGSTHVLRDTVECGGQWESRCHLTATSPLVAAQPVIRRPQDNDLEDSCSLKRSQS

SMILES	Ki [1]	Ki [2]	also measured
O=C1C2CCCCN2C(=O)N1CN1CCN(c2cccc3c2COCCO3)CC1 (configuration not stated)	> 1000 nM	6.1 nM	–
O=C1C2CCCN2C(=O)CN1CN1CCN(c2cccc3c2COCCO3)CC1 (configuration not stated)	> 1000 nM	12.3 nM	–
O=C1C2CCCN2C(=O)CN1CN1CCN(c2cccc3ccccc23)CC1 (configuration not stated)	> 1000 nM	4.1 nM	Ki [3]: > 10000 nM; Ki (D(2) dopamine receptor): 192 nM; Ki [4]: 13.5 nM; Ki [5]: 101 nM; Ki [6]: 976 nM; Ki [7]: > 10000 nM
O=C1C2CCCN2C(=O)N1CCCCN1CCN(c2cccc3ccccc23)CC1 (configuration not stated)	64.9 nM	2.4 nM	–
O=C1C2CCCN2C(=O)N1CN1CCN(c2cccc3[nH]cnc23)CC1 (configuration not stated)	10000 nM	4.1 nM	–
O=C1C2CCCCN2C(=O)N1CN1CCN(c2cccc3c2OCCO3)CC1 (configuration not stated)	> 1000 nM	9.3 nM	–
O=C1C2CCCN2C(=O)N1CN1CCN(c2cccc3ccccc23)CC1 (configuration not stated)	> 1000 nM	10.4 nM	–
O=C1C2CCCCN2C(=O)N1CN1CCN(c2cccc3ccccc23)CC1 (configuration not stated)	> 1000 nM	5.6 nM	–
